{"source": "patent US12151999B2", "about": "“Small molecule compounds having naphthylamine structure and application thereof” (Hangzhou PhecdaMed Co., Ltd., priority 2021, dated 2024)", "data": [{"tested_on": "HEK293Tmtkeima cells", "assay": "Functional test of mitophagy inducer (mtKeima imaging, with or without CCCP-induced mitochondrial damage)", "assay_type": "cell-based, Human", "details": "HEK293Tmtkeima cells, 5 uM or 10 uM CCCP to induce mitochondrial damage; number of cells in which damaged mitophagy occurs/number of all cells", "method": "Group 1: Human embryonic kidney transformed cells HEK293Tmtkeima cells were treated with 0 μM, 1.25 μM, 2.5 μM, 5 μM and 10 μM CCCP respectively, and seeded in a 96-well black ELISA PLATE at 1.5*10^5 cells/ml, 100 μL per well. Compound I-2 was added after 25 hours, and 3 replicates were set. At 37° C., under 5% CO2 incubation conditions, photographs were taken every few hours with biotek cytation 5 for a total of 20 hours, with the bright field as the focusing channel, and 9 images were taken per hole, and the images were processed using the instrument software.\nGroup 2: Human embryonic kidney transformed cells HEK293Tmtkeima cells were seeded in a 96-well black ELISA PLATE at […], 100 μL per well; compounds I-1˜I-44 and UMI-77 were added after 25 hours, set up 3 replicates; under 37° C., 5% CO2 culture conditions, use biotek every few hours Cytation 5 was used to take photos, a total of 20 hours of shooting. In another group of cells under the same conditions, human embryonic kidney-transformed cells HEK293Tmtkeima cells were seeded in a 96-well black enzyme plate at 1.5*10^5 cells/ml, 100 μl per well; after 24 hours, 5 uM or 10 uM CCCP (Carbonyl cyanide) was first added 3-chlorophenylhydrazone) to induce mitochondrial damage, then add I-1˜I-44, UMI-77 1 hour later, set up 3 repetitions; under 37° C., 5% CO2 culture conditions, pictures were taken every few hours with biotek cytation 5, photographs were taken for 20 hours. Another group of human embryonic kidney transformed cells HEK293Tmtkeima cells was seeded at 1.5*10^5 cells/ml in 96-well black ELISA PLATE at 100 μl per well under the same conditions, 24 hours later 5 uM or 10 uM CCCP (Carbonyl cyanide 3-chlorophenylhydrazone) was first added to induce mitochondrial damage, after 1 hour then add I-1 to I-44, UMI-77 and set up 3 replicates. At 37° C., under 5% CO2 incubation conditions, pictures were taken every few hours with biotek cytation 5, photographs were taken for 20 hours, with the bright field as the focusing channel for both groups, and 9 images were taken per hole, and the images were processed using the instrument software.", "values": [{"smiles": "O=C(O)C[S+]([O-])c1cc(N(C2CC2)S(=O)(=O)c2ccc(Br)cc2)c2ccccc2c1O", "note": "(stereo not drawn) [Compound I-3]", "The ability of selection to induce autophagy in damaged mitochondria": "++ (moderate ability to selectively induce autophagy in damaged mitochondria (number of cells in which damaged mitophagy occurs/number of all cells in the range of 0.2 to 0.3))"}, {"smiles": "O=C(O)C[S+]([O-])c1cc(N(C2COC2)S(=O)(=O)c2ccc(Br)cc2)c2ccccc2c1O", "note": "(stereo not drawn) [Compound I-4]", "The ability of selection to induce autophagy in damaged mitochondria": "+ (weak ability to selectively induce autophagy in damaged mitochondria (number of cells in which damaged mitophagy occurs/number of all cells in the range of 0.1 to 0.2))"}, {"smiles": "NC(=O)C[S+]([O-])c1cc(NS(=O)(=O)c2ccc(Br)cc2)c2ccccc2c1O", "note": "(stereo not drawn) [Compound I-5]", "The ability of selection to induce autophagy in damaged mitochondria": "+ (weak ability to selectively induce autophagy in damaged mitochondria (number of cells in which damaged mitophagy occurs/number of all cells in the range of 0.1 to 0.2))"}, {"smiles": "NC(=S)C[S+]([O-])c1cc(NS(=O)(=O)c2ccc(Br)cc2)c2ccccc2c1O", "note": "(stereo not drawn) [Compound I-6]", "The ability of selection to induce autophagy in damaged mitochondria": "+ (weak ability to selectively induce autophagy in damaged mitochondria (number of cells in which damaged mitophagy occurs/number of all cells in the range of 0.1 to 0.2))"}, {"smiles": "O=S(=O)(Cc1nn[nH]n1)c1cc(NS(=O)(=O)c2ccc(Br)cc2)c2ccccc2c1O", "note": "[Compound I-7-2]", "The ability of selection to induce autophagy in damaged mitochondria": "+ (weak ability to selectively induce autophagy in damaged mitochondria (number of cells in which damaged mitophagy occurs/number of all cells in the range of 0.1 to 0.2))"}, {"smiles": "O=S(=O)(Nc1cc([S+]([O-])Cc2nnc[nH]2)c(O)c2ccccc12)c1ccc(Br)cc1", "note": "(stereo not drawn) [Compound I-8]", "The ability of selection to induce autophagy in damaged mitochondria": "+++ (strong ability to selectively induce autophagy in damaged mitochondria (number of cells in which damaged mitophagy occurs/number of all cells >0.30))"}, {"smiles": "O=C(O)C[S+]([O-])c1cc(NS(=O)(=O)c2cccs2)c2ccccc2c1O", "note": "(stereo not drawn) [Compound I-13-1]", "The ability of selection to induce autophagy in damaged mitochondria": "+++ (strong ability to selectively induce autophagy in damaged mitochondria (number of cells in which damaged mitophagy occurs/number of all cells >0.30))"}, {"smiles": "O=C(O)CS(=O)(=O)c1cc(NS(=O)(=O)c2cccs2)c2ccccc2c1O", "note": "[Compound I-13-2]", "The ability of selection to induce autophagy in damaged mitochondria": "++ (moderate ability to selectively induce autophagy in damaged mitochondria (number of cells in which damaged mitophagy occurs/number of all cells in the range of 0.2 to 0.3))"}, {"smiles": "O=C(O)C[S+]([O-])c1cc(NS(=O)(=O)c2ccc(C(F)(F)F)cc2)c2ccccc2c1O", "note": "(stereo not drawn) [Compound I-14-1]", "The ability of selection to induce autophagy in damaged mitochondria": "++ (moderate ability to selectively induce autophagy in damaged mitochondria (number of cells in which damaged mitophagy occurs/number of all cells in the range of 0.2 to 0.3))"}, {"smiles": "O=C(O)CS(=O)(=O)c1cc(NS(=O)(=O)c2ccc(C(F)(F)F)cc2)c2ccccc2c1O", "note": "[Compound I-14-2]", "The ability of selection to induce autophagy in damaged mitochondria": "++ (moderate ability to selectively induce autophagy in damaged mitochondria (number of cells in which damaged mitophagy occurs/number of all cells in the range of 0.2 to 0.3))"}, {"smiles": "COc1ccc(S(=O)(=O)Nc2cc([S+]([O-])CC(=O)O)c(O)c3ccccc23)cc1", "note": "(stereo not drawn) [Compound I-15-1]", "The ability of selection to induce autophagy in damaged mitochondria": "+ (weak ability to selectively induce autophagy in damaged mitochondria (number of cells in which damaged mitophagy occurs/number of all cells in the range of 0.1 to 0.2))"}, {"smiles": "O=C(O)C[S+]([O-])c1cc(NS(=O)(=O)c2ccc(Oc3ccccc3)cc2)c2ccccc2c1O", "note": "(stereo not drawn) [Compound I-16-1]", "The ability of selection to induce autophagy in damaged mitochondria": "++ (moderate ability to selectively induce autophagy in damaged mitochondria (number of cells in which damaged mitophagy occurs/number of all cells in the range of 0.2 to 0.3))"}, {"smiles": "O=C(O)C[S+]([O-])c1cc(NS(=O)(=O)c2ccc(Cl)c(Cl)c2)c2ccccc2c1O", "note": "(stereo not drawn) [Compound I-17-1]", "The ability of selection to induce autophagy in damaged mitochondria": "+++ (strong ability to selectively induce autophagy in damaged mitochondria (number of cells in which damaged mitophagy occurs/number of all cells >0.30))"}, {"smiles": "O=C(O)C[S+]([O-])c1cc(NS(=O)(=O)c2ccc(N3CCCC3)cc2)c2ccccc2c1O", "note": "(stereo not drawn) [Compound I-18-1]", "The ability of selection to induce autophagy in damaged mitochondria": "+ (weak ability to selectively induce autophagy in damaged mitochondria (number of cells in which damaged mitophagy occurs/number of all cells in the range of 0.1 to 0.2))"}, {"smiles": "O=C(O)C[S+]([O-])c1cc(NS(=O)(=O)c2cc3ccccc3s2)c2ccccc2c1O", "note": "(stereo not drawn) [Compound I-19-1]", "The ability of selection to induce autophagy in damaged mitochondria": "++ (moderate ability to selectively induce autophagy in damaged mitochondria (number of cells in which damaged mitophagy occurs/number of all cells in the range of 0.2 to 0.3))"}, {"smiles": "O=C(O)C[S+]([O-])c1cc(NS(=O)(=O)c2ccc(C3CC3)cc2)c2ccccc2c1O", "note": "(stereo not drawn) [Compound I-20-1]", "The ability of selection to induce autophagy in damaged mitochondria": "++ (moderate ability to selectively induce autophagy in damaged mitochondria (number of cells in which damaged mitophagy occurs/number of all cells in the range of 0.2 to 0.3))"}, {"smiles": "O=C(O)C[S+]([O-])c1cc(NS(=O)(=O)c2ccc(OC(F)(F)F)cc2)c2ccccc2c1O", "note": "(stereo not drawn) [Compound I-21-1]", "The ability of selection to induce autophagy in damaged mitochondria": "+++ (strong ability to selectively induce autophagy in damaged mitochondria (number of cells in which damaged mitophagy occurs/number of all cells >0.30))"}, {"smiles": "O=C(O)C[S+]([O-])c1cc(NS(=O)(=O)c2ccc([N+](=O)[O-])cc2)c2ccccc2c1O", "note": "(stereo not drawn) [Compound I-22-1]", "The ability of selection to induce autophagy in damaged mitochondria": "+ (weak ability to selectively induce autophagy in damaged mitochondria (number of cells in which damaged mitophagy occurs/number of all cells in the range of 0.1 to 0.2))"}, {"smiles": "O=C(O)CS(=O)(=O)c1cc(NS(=O)(=O)c2cccc(-c3ccccc3)c2)c2ccccc2c1O", "note": "[Compound I-23-2]", "The ability of selection to induce autophagy in damaged mitochondria": "++ (moderate ability to selectively induce autophagy in damaged mitochondria (number of cells in which damaged mitophagy occurs/number of all cells in the range of 0.2 to 0.3))"}, {"smiles": "O=C(O)C[S+]([O-])c1cc(NS(=O)(=O)c2cccc(F)c2)c2ccccc2c1O", "note": "(stereo not drawn) [Compound I-24-1]", "The ability of selection to induce autophagy in damaged mitochondria": "+ (weak ability to selectively induce autophagy in damaged mitochondria (number of cells in which damaged mitophagy occurs/number of all cells in the range of 0.1 to 0.2))"}, {"smiles": "CN=S(=O)(Nc1cc([S+]([O-])CC(=O)O)c(O)c2ccccc12)c1ccc(Br)cc1", "note": "(stereo not drawn) [Compound I-25-1]", "The ability of selection to induce autophagy in damaged mitochondria": "+++ (strong ability to selectively induce autophagy in damaged mitochondria (number of cells in which damaged mitophagy occurs/number of all cells >0.30))"}, {"smiles": "CN=S(=O)(c1ccc(Br)cc1)N(C)c1cc([S+]([O-])CC(=O)O)c(O)c2ccccc12", "note": "(stereo not drawn) [Compound I-26]", "The ability of selection to induce autophagy in damaged mitochondria": "++ (moderate ability to selectively induce autophagy in damaged mitochondria (number of cells in which damaged mitophagy occurs/number of all cells in the range of 0.2 to 0.3))"}, {"smiles": "O=C(O)C[S+]([O-])c1cc(N2CCN=S2(=O)c2ccc(Br)cc2)c2ccccc2c1O", "note": "(stereo not drawn) [Compound I-27]", "The ability of selection to induce autophagy in damaged mitochondria": "++ (moderate ability to selectively induce autophagy in damaged mitochondria (number of cells in which damaged mitophagy occurs/number of all cells in the range of 0.2 to 0.3))"}, {"smiles": "O=C(O)C[S+]([O-])c1cc(N2CCCN=S2(=O)c2ccc(Br)cc2)c2ccccc2c1O", "note": "(stereo not drawn) [Compound I-28]", "The ability of selection to induce autophagy in damaged mitochondria": "+ (weak ability to selectively induce autophagy in damaged mitochondria (number of cells in which damaged mitophagy occurs/number of all cells in the range of 0.1 to 0.2))"}]}]}
